Results: patent publication US10597388B2, “Pyridazinone herbicides” (FMC CORPORATION, priority 2014, dated 2020)

Key:
Test in all cases: Test D controlled growth environment herbicide test, pre- and postemergence
Assay type in all cases: in vivo
[1] = tested on: oat, wild (wild oat, Avena fatua)
Description: (§1) Seeds of plant species selected from bluegrass (annual bluegrass, Poa annua), blackgrass (Alopecurus myosuroides), Canada thistle (Cirsium arvense), canarygrass (Phalaris minor), chickweed (common chickweed, Stellaria media), geranium, cutleaf (cutleaf geranium, Geranium dissectum), galium (catchweed bedstraw, Galium aparine), bromegrass, downy (downy bromegrass, Bromus tectorum), field poppy (Papaver rhoeas), field violet (Viola arvensis), foxtail, green (green foxtail, Setaria viridis), deadnettle (henbit deadnettle, Lamium amplexicaule), ryegrass, Italian (Italian ryegrass, Lolium multiflorum), kochia (Kochia scoparia), lambsquarters (Chenopodium album), oilseed rape (Brassica napus), pigweed (Amaranthus retroflexus), chamomile (scentless chamomile, Matricaria inodora), Russian thistle (Salsola kali), speedwell (bird's-eye speedwell, Veronica persica), barley, spring (spring barley, Hordeum vulgare), wheat, spring (spring wheat, Triticum aestivum), buckwheat, wild (wild buckwheat, Polygonum convolvulus), mustard, wild (wild mustard, Sinapis arvensis), oat, wild (wild oat, Avena fatua), radish, wild (wild radish, Raphanus raphanistrum), windgrass (Apera spica-venti), barley, winter (winter barley, Hordeum vulgare), and wheat, winter (winter wheat, Triticum aestivum) were planted into a silt loam soil and treated preemergence with test chemicals formulated in a non-phytotoxic solvent mixture which included a surfactant.
(§2) At the same time, these species were planted in pots containing Redi-Earth® planting medium (Scotts Company, 14111 Scottslawn Road, Marysville, Ohio 43041) comprising spaghnum peat moss, vermiculite, wetting agent and starter nutrients and treated with postemergence applications of the test chemicals formulated in the same manner. Plants ranged in height from 2 to 18 cm (1- to 4-leaf stage). Treated plants and controls were maintained in a controlled growth environment for 14 to 21 d after which time all species were compared to controls and visually evaluated. Plant response ratings, summarized in Table D, are based on a scale of 0 to 100 where 0 is no effect and 100 is complete control. A dash (-) response means no test result.

[2] = tested on: bromegrass, downy (downy bromegrass, Bromus tectorum)
Description: as §1, §2

[3] = tested on: chickweed (common chickweed, Stellaria media)
Description: as §1, §2

[4] = tested on: barley, winter (winter barley, Hordeum vulgare)
Description: as §1, §2

[5] = tested on: galium (catchweed bedstraw, Galium aparine)
Description: as §1, §2

[6] = tested on: Russian thistle (Salsola kali)
Description: as §1, §2

[7] = tested on: buckwheat, wild (wild buckwheat, Polygonum convolvulus)
Description: as §1, §2

[8] = tested on: canarygrass (Phalaris minor)
Description: as §1, §2

[9] = tested on: radish, wild (wild radish, Raphanus raphanistrum)
Description: as §1, §2

[10] = tested on: pigweed (Amaranthus retroflexus)
Description: as §1, §2

[11] = tested on: windgrass (Apera spica-venti)
Description: as §1, §2

[12] = tested on: field violet (Viola arvensis)
Description: as §1, §2

kochia (Kochia scoparia) = tested on: kochia (Kochia scoparia)
Description: as §1, §2

[13] = Postemergence, 31 g ai/ha, scale 0 to 100 (0 no effect, 100 complete control)
[14] = Postemergence, 125 g ai/ha, visual rating on scale 0 (no effect) to 100 (complete control), 14 to 21 d
[15] = Postemergence, 250 g ai/ha, scale 0 to 100 (0 no effect, 100 complete control)
[16] = Preemergence, 62 g ai/ha, scale 0 to 100 (0 no effect, 100 complete control)
[17] = Preemergence, 125 g ai/ha, scale 0 to 100 (0 no effect, 100 complete control)
[18] = Preemergence, 250 g ai/ha, scale 0 to 100 (0 no effect, 100 complete control)
[19] = postemergence, 62 g ai/ha, scale 0 to 100, 0 no effect, 100 complete control

COc1nn(C)c(=O)c(-c2c(C)ccc3ccccc23)c1O [Compound 54]
0: Plant response rating (scale of 0 to 100), Bromegrass, Downy ([2]; Preemergence, 31 g ai/ha) | Barley, Winter plant response rating [4, 13] | Plant response rating (scale of 0 to 100), Barley, Winter ([4]; Preemergence, 31 g ai/ha) | Plant response rating, Barley, Winter [4, 16] | Plant response rating, Barley, Winter [4, 17] | Plant response rating, Barley, Winter [4, 18] | Plant response rating, Barley, Winter [4, 19] | Plant response rating (scale of 0 to 100), Galium ([5]; Preemergence, 31 g ai/ha) | Plant response rating (scale of 0 to 100), Russian Thistle ([6]; Preemergence, 31 g ai/ha) | Plant response rating, Russian Thistle [6, 16] | Plant response rating (scale of 0 to 100), Buckwheat, Wild ([7]; Preemergence, 31 g ai/ha) | Plant response rating (scale of 0 to 100), Windgrass ([11]; Preemergence, 31 g ai/ha)
70: Plant response rating, Buckwheat, Wild [7, 17] | Plant response rating, Windgrass [11, 14] | Plant response rating, Windgrass [11, 17] | Plant response rating, Field Violet [12, 17]
80: Russian Thistle plant response rating [6, 13] | Plant response rating, Russian Thistle [6, 19] | Plant response rating, Buckwheat, Wild [7, 18] | Plant response rating, Canarygrass [8, 17] | Radish, Wild plant response rating [9, 13] | Plant response rating (scale of 0 to 100), Pigweed ([10]; Preemergence, 31 g ai/ha)
75: Oat, Wild plant response rating [1, 13] | Plant response rating (scale of 0 to 100), Oat, Wild ([1]; Preemergence, 31 g ai/ha) | Plant response rating, Oat, Wild [1, 16] | Plant response rating, Bromegrass, Downy [2, 15] | Plant response rating, Canarygrass [8, 15] | Plant response rating, Windgrass [11, 15] | Plant response rating, Field Violet [12, 19]
95: Plant response rating, Oat, Wild [1, 18] | Plant response rating, Chickweed [3, 17] | Plant response rating, Windgrass [11, 18] | Plant response rating, Field Violet [12, 14] | Plant response rating, Field Violet [12, 18] | Plant response rating, Kochia (kochia (Kochia scoparia); [19])
85: Plant response rating, Oat, Wild [1, 17] | Plant response rating, Oat, Wild [1, 19] | Plant response rating (scale of 0 to 100), Chickweed ([3]; Preemergence, 31 g ai/ha) | Plant response rating, Galium [5, 17] | Field Violet plant response rating [12, 13]
10: Bromegrass, Downy plant response rating [2, 13]
40: Plant response rating, Bromegrass, Downy [2, 18]
65: Plant response rating, Canarygrass [8, 14]
5: Plant response rating, Barley, Winter [4, 14] | Plant response rating, Buckwheat, Wild [7, 16]
15: Plant response rating, Bromegrass, Downy [2, 16] | Plant response rating, Bromegrass, Downy [2, 17] | Plant response rating (scale of 0 to 100), Canarygrass ([8]; Preemergence, 31 g ai/ha) | Kochia plant response rating (kochia (Kochia scoparia); [13])
100: Chickweed plant response rating [3, 13] | Plant response rating, Chickweed [3, 14] | Plant response rating, Chickweed [3, 15] | Plant response rating, Chickweed [3, 18] | Plant response rating, Chickweed [3, 19] | Galium plant response rating [5, 13] | Plant response rating, Galium [5, 14] | Plant response rating, Galium [5, 15] | Plant response rating, Galium [5, 18] | Plant response rating, Galium [5, 19] | Plant response rating, Russian Thistle [6, 15] | Buckwheat, Wild plant response rating [7, 13] | Plant response rating, Buckwheat, Wild [7, 14] | Plant response rating, Buckwheat, Wild [7, 15] | Plant response rating, Buckwheat, Wild [7, 19] | Plant response rating, Radish, Wild [9, 14] | Plant response rating, Radish, Wild [9, 15] | Plant response rating, Radish, Wild [9, 16] | Plant response rating, Radish, Wild [9, 17] | Plant response rating, Radish, Wild [9, 18] | Plant response rating, Radish, Wild [9, 19] | Pigweed plant response rating [10, 13] | Plant response rating, Pigweed [10, 14] | Plant response rating, Pigweed [10, 15] | Plant response rating, Pigweed [10, 16] | Plant response rating, Pigweed [10, 17] | Plant response rating, Pigweed [10, 18] | Plant response rating, Pigweed [10, 19] | Plant response rating, Kochia (kochia (Kochia scoparia); [14]) | Plant response rating, Kochia (kochia (Kochia scoparia); [15])
90: Plant response rating, Oat, Wild [1, 14] | Plant response rating, Oat, Wild [1, 15] | Plant response rating, Chickweed [3, 16] | Plant response rating, Russian Thistle [6, 14] | Plant response rating, Canarygrass [8, 18] | Plant response rating, Field Violet [12, 15]
60: Plant response rating, Kochia (kochia (Kochia scoparia); [16])
45: Plant response rating, Galium [5, 16] | Plant response rating, Windgrass [11, 19] | Plant response rating, Kochia (kochia (Kochia scoparia); [18])
35: Plant response rating, Russian Thistle [6, 18] | Canarygrass plant response rating [8, 13] | Windgrass plant response rating [11, 13] | Plant response rating, Field Violet [12, 16]
25: Plant response rating, Russian Thistle [6, 17] | Plant response rating (scale of 0 to 100), Radish, Wild ([9]; Preemergence, 31 g ai/ha) | Plant response rating (scale of 0 to 100), Field Violet ([12]; Preemergence, 31 g ai/ha) | Plant response rating (scale of 0 to 100), Kochia (kochia (Kochia scoparia); Preemergence, 31 g ai/ha)
55: Plant response rating, Bromegrass, Downy [2, 14] | Plant response rating, Bromegrass, Downy [2, 19] | Plant response rating, Canarygrass [8, 16] | Plant response rating, Canarygrass [8, 19]
50: Plant response rating, Windgrass [11, 16]
30: Plant response rating, Barley, Winter [4, 15] | Plant response rating, Kochia (kochia (Kochia scoparia); [17])
